Results as given in patent US7030265B2, “Retinol derivatives, the method of preparations and the uses thereof” (Chebigen, Inc., priority 2001, dated 2006).

Experiments:
Type in all cases: cell-based
[1] = system: MDA-MB-231 (breast cancer); test: Cell toxicity test (living cell count); settings: MDA-MB-231 cells, 0, 500, 1000, 5000 nM, 4 days, FIG. 1
Method: (§1) The cell line utilized for cell toxicity test of retinal derivatives were SK-Hep-1(liver cancer), MDA-MB-231 (breast cancer), HaCAT (skin cancer), and HCT116 (colon cancer). Those cell lines were maintained and cultured in DMEM (Dulbecco's Modified Eagle's Medium)/10% FBS containing 10% fetal bovine serum (FBS) (GibcoBRL, Gaithersburg, Md.). 3×10^3 cells, 100 μl media per well were distribute into 96 well microtiter plate and cultured for 24 hours. Each cultured cell lines were treated with various concentrations of retinal derivatives (0, 500, 1000, 5000 nM) for 4 days and living cells were counted with hemocytometer to measure the inhibition effect of cell proliferation.
(§2) The retinal derivatives utilized for the experiments were retinol-(N-formyl-aspartam), retinol, 4-HPR[N-(4-hydroxyphenyl)retineamide] (Sigma Co., St. Louis, Mo.). Those derivatives were eluted in dimethylsulfoxide and the concentration of dimethylsulfoxide added into culture media was kept at not over 0.01%.

HaCAT (skin cancer) = test: Cell toxicity test (living cell count); settings: HaCAT cells, 0, 500, 1000, 5000 nM, 4 days, FIG. 1
Method: as §1, §2

SK-Hep-1 (liver cancer) = test: Cell toxicity test (living cell count); settings: SK-Hep-1 cells, 0, 500, 1000, 5000 nM, 4 days, FIG. 1
Method: as §1, §2

HCT116 (colon cancer) = test: Cell toxicity test (living cell count); settings: HCT116 cells, 0, 500, 1000, 5000 nM, 4 days, FIG. 1
Method: as §1, §2

retinoid X receptor γ = target: T1, retinoid X receptor γ (Homo sapiens, UniProt P48443); test: RXR activity test, DR1-tk-CAT reporter in HaCAT cells; settings: 1 μM, CAT ELISA, FIG. 2 (B)
T1 construct: expressed in transfected cells; host or cells: HaCAT
T1 sequence (P48443 1-463): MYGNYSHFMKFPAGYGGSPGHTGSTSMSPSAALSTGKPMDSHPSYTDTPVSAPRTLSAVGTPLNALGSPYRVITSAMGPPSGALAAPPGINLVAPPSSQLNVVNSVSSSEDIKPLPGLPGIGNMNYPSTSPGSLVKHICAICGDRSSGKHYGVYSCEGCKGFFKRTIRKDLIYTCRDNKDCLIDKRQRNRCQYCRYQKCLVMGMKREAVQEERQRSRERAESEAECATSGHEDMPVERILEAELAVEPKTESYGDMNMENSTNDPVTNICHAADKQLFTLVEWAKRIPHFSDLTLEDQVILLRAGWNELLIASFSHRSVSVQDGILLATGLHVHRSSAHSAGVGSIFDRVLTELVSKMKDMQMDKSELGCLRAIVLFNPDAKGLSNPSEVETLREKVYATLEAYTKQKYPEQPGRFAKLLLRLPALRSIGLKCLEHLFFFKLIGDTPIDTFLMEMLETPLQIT
Description: (§3) To analyze the effects of retinol-(N-formyl-aspartam) on the activity of retinoic acid receptor, skin cancer (HaCAT) cell lines were utilized to measure the activity of retinoic acid receptor/retinoid X receptor.
(§4) Recombinant DNA, DR5-tk-CAT or DR1-tk-CAT consisting of DR1 or DR5, effectors of retinoic acid receptor/retinoid X receptor, thymine kinase promoter, and CAT(chloramphenicol acetyl transferase) were mixed with the plasmid DNA expressing retinoic acid receptor α, β, ? or retinoid X receptor α, β, ? to cotransfect skin cancer (HaCAT) cell line with lipofectamine (GibcoBRL). The cotransfected cell lines were cultured for 1 day on DMEM/10% FBS media, each retinol derivatives (1 μM) were added and cultured for one more day, 5% CO2, 37° C. The cells were washed with phosphate-buffered saline (PBS), and the proteins were isolated from each cells, and the activity of β-galactosidase and protein contents were measured to determine transfection efficacy, the transcription level of RAR or RXR receptor were measured with CAT ELISA (Roche Molecular Biochemical, Mannheim, Germany).

retinoid X receptor α = target: T2, retinoid X receptor α (Homo sapiens, UniProt P19793); test: as above; settings: 1 μM, CAT ELISA, FIG. 2 (B)
T2 construct: expressed in transfected cells; host or cells: HaCAT
T2 sequence (P19793 1-462): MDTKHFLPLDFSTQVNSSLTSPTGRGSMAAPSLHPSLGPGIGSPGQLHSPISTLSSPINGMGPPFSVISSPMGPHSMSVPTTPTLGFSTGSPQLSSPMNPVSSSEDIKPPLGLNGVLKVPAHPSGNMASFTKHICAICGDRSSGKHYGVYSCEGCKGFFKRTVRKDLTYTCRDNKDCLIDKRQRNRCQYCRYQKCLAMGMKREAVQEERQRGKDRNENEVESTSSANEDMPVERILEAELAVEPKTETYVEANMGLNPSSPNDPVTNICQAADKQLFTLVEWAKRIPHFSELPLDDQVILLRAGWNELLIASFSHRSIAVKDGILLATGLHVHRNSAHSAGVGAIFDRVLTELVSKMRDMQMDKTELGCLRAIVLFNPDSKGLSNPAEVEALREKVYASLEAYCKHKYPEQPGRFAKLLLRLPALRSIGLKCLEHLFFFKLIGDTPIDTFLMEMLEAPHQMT
Description: as §3, §4

retinoid X receptor β = target: T3, retinoid X receptor β (Homo sapiens, UniProt P28702); test: as above; settings: 1 μM, CAT ELISA, FIG. 2 (B)
T3 construct: expressed in transfected cells; host or cells: HaCAT
T3 sequence (P28702 1-533): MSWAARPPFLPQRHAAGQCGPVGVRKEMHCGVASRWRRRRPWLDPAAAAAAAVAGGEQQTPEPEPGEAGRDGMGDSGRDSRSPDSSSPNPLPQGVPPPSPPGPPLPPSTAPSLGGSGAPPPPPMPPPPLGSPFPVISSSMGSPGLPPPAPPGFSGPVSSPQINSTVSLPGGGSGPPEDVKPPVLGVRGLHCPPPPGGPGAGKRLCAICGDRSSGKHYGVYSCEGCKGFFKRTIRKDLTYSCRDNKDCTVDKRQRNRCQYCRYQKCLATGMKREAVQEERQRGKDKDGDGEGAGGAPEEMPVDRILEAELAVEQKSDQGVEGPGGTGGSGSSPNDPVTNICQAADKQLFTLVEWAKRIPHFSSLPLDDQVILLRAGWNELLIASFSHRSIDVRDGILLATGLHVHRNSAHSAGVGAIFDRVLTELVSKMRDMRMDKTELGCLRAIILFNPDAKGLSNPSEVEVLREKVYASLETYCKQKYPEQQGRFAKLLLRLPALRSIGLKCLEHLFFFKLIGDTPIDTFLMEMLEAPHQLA
Description: as §3, §4

Structure (SMILES): COC(=O)C(Cc1ccccc1)NC(=O)[C@H](CC(=O)OC/C=C(C)/C=C/C=C(C)/C=C/C1=C(C)CCCC1(C)C)NC=O (stereo partly drawn) [retinol-(N-formyl-aspartam), (2E,4E,6E,8E)-3,7-dimethyl-9-(2,6,6-trimethyl-1-cyclohexenyl)-2,4,6,8-nonatetraenyl(3S)-4-[(1-benzyl-2-methoxy-2-oxoethyl)amino]-3-formylamino-4-oxobutanoate]
- cell toxicity (inhibition of cell proliferation) [1]: no toxicity
- cell toxicity (inhibition of cell proliferation) (HaCAT (skin cancer)): no toxicity
- cell toxicity (inhibition of cell proliferation) (SK-Hep-1 (liver cancer)): no toxicity
- cell toxicity (inhibition of cell proliferation) (HCT116 (colon cancer)): less toxicity than retinol
- activation of retinoid X receptor γ (retinoid X receptor γ): no activation
- activation of retinoid X receptor α (retinoid X receptor α): no activation
- activation of retinoid X receptor β (retinoid X receptor β): no activation
